# Measured values from patent publication EP0019589A1, “Tripeptide derivatives and their use in a process for determining enzymes” (Pentapharm A.G., priority 1979, dated 1980).
# Non-standard residues stand in square brackets, D forms with d. Residues, ends and D or L forms follow the SMILES beside them. *: point of attachment. Cha = N[C@@H](CC1CCCCC1)C(=O)O; dCha = N[C@H](CC1CCCCC1)C(=O)O; dChg = N[C@@H](C(=O)O)C1CCCCC1; dPhg = N[C@@H](C(=O)O)c1ccccc1; pNA = O=[N+]([O-])c1ccc(N*)cc1; Chg = N[C@H](C(=O)O)C1CCCCC1
# Assays:
# Type in all cases: biochemical
# Humanplasmin = target: T1, Humanplasmin (Homo sapiens, UniProt P00747); test: Cleavage of chromogenic substrate by human plasmin; conditions: 1 CU-Einheit human plasmin, per min; Substratkonzentration 2 x 10^-4 molar
# T1 construct: da bei der Aktivierung aus 1 Molekül Plasminogen 1 Molekül Plasmin entsteht
# T1 sequence (P00747 581-810 limits assumed): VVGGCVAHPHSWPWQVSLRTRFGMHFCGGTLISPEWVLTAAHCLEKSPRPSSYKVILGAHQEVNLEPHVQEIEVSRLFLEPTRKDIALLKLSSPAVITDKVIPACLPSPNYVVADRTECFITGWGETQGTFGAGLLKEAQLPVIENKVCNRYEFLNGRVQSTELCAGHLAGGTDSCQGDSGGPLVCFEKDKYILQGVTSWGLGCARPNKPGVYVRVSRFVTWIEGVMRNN
# T1 sequence (P00747 97-580 partner limits assumed): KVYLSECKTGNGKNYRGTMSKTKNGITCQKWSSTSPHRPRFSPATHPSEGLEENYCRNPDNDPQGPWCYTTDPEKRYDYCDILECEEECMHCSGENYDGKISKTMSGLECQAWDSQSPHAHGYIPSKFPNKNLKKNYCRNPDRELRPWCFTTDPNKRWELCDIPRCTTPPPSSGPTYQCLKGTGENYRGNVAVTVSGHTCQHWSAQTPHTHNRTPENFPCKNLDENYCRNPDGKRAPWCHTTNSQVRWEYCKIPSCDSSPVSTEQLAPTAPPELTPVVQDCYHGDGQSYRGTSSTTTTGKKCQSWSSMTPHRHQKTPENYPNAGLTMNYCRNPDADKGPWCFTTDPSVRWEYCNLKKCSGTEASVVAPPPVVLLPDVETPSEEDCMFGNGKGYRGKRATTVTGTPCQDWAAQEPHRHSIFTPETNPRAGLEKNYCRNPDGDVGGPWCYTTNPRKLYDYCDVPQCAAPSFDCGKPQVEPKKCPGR
# Procedure: 3. Bestimmung von Plasmin:
# Man mischt 1,7 ml TRIS-Imidazol-Puffer (pH 7,5, Ionenstärke 0,2) bei 37°C mit 0,1 ml einer Lösung von Plasmin in 25%igem Glycerin und inkubiert die Mischung während 1 Min. bei 37°C. Dann gibt man der Mischung 0,2 ml einer wässrigen 2 x 10^-3 molaren Substxatlösung von 37°C zu und durchmischt das Ganze schnell. Man ermittelt dann kontinuierlich die pro Zeiteinheit aus dem Substrat freigesetzte Menge des Spaltproduktes R-NH2. Aus dem pro Min. ermittelten Wert berechnet man dann die Plasminaktivität pro ml Probe in mU nach der folgenden Formel: [formula] • ΔE = pro Min. freigesetzte Menge des Spaltproduktes • V = Totalvolumen des Testansatzes • v = Volumen der Probe • = Extinktionskoeffizient dividiert durch 1000
# (§1) Bei der Messung des durch die enzymatische Hydrolyse des Substrates gebildeten Spaltproduktes RrNH2 geht man von der Voraussetzung aus, dass das Spaltprodukt ein UV-Spektrum besitzt, das von demjenigen des Substrates verschieden und in Richtung höherer Wellenlängen verschoben ist. Die Absorption des Substrates bei 405 nm ist praktisch Null. p-Nitroanilin als Spaltprodukt weist ein Absorptionsmaximum bei 380 nm und einen molaren Extinktionskoeffizienten von 13'200 auf. Bei 405 nm ist der Extinktionskoeffizient nur wenig niedriger, d.h. […] Der Grad der enzymatischen Hydrolyse des Substrates, welcher der Menge des abgespaltenen p-Nitroanilins proportional ist, lässt sich durch spektrophotometrische Messung bei 405 nm bestimmen. Auch bei Anwesenheit eines Ueberschusses an Substrat wird die Messung bei 405 nm nicht gestört.
# (§2) Bei den Substraten, die als chromogene Gruppe eine 2-Naphthylamino-, 4-Methoxy-2-naphthylamino-, 4-Methyl-cumaryl-(7)-amino- oder 1,3-Di(methoxycarbonyl)-phenyl-(5)-amino-Gruppe enthalten, wird die Menge des Spaltproduktes R-NH2 durch Fluoreszenzspektrophotometrie gemessen. In einem aus Enzym, Puffer und Substrat bestehenden Testsystem misst man kontinuierlich das energieärmere emittierte Licht bei 400-470 nm, nachdem man das gebildete fluoreszierende Spaltprodukt mit energiereicherem Licht erregt hat. Die pro Zeiteinheit gebildete Menge Spaltprodukt ist ein Mass für die vorhandene Enzymaktivität. 1 µMol Spaltprodukt pro Minute entspricht definitionsgemäss 1 Enzym-Einheit, bezogen auf ein gegebenes Substrat.
# Urinkallikrein = target: T2, Urinkallikrein (Homo sapiens, UniProt P06870); test: Cleavage of chromogenic substrate by urinary kallikrein in human urine; conditions: 1 ml human urine (pooled morning urine of healthy persons), per min; Substratkonzentration 2 x 10^-4 molar
# T2 construct: 1 ml Urin und 1 ml TRIS-Imidazol-Puffer mit pH 7,9; from tissue; host or cells: human urine
# T2 sequence (P06870 25-262): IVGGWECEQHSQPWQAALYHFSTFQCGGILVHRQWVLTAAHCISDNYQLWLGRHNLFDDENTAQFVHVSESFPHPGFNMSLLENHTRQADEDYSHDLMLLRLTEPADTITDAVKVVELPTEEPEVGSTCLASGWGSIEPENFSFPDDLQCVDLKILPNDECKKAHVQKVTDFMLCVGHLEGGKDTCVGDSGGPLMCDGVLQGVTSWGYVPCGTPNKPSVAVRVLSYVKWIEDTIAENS
# Procedure: 1. Bestimmung von Urinkallikrein.
# 1 ml Urin und 1 ml TRIS-Imidazol-Puffer mit pH 7,9 und Ionenstärke 1,0 werden 5 Min. bei 37°C inkubiert undcänn zentrifugiert, um Sedimente zu entfernen.
# In einer-Plastikküvette werden 1,4 ml dest. H20 von 37°C und 0,4 ml des Zentrifugats gut gemischt. Zu dieser Mischung gibt man 0,2 ml einer 2 x 10^-3 molaren wässrigen Substratlösung und durchmischt die Komponenten schnell. Dieses Gemisch wird genau 15 Min. bei 37°C inkubiert. Dann wird dem Reaktionsgemisch 0,2 ml Eisessig zugemischt, um die Enzymreaktion zu unterbrechen. Zur Farbmessung verwendet man eine Vergleichsprobe (Blindprobe), die aus den gleichen Komponenten zusammengesetzt ist, wobei jedoch der Eisessig vor Zugabe des Substrates zugesetzt wird, um die Enzymreaktion zu verhindern. Dann wird bei 405 nm photometrisch oder spektrophotometrisch die Menge der gebildeten farbigen Verbindung RNH 2 aus der Differenz zwischen der Blindprobe und der zu bestimmenden Probe ermittelt. Aus dem ermittelten Wert wird die Urinkallikreinaktivität im Urin nach der folgenden Formel berechnet: [formula] • Δ OD = Zunahme der optischen Dichte bei 405 nm während 15 Min. • V = Totalvolumen des Bestimmungsansatzes = 2,2 ml • 1000 = Umrechnungsfaktor zur Umwandlung von U in mU • F = Verdünnungsfaktor des Urins (2) • v = Volumen der Probe = 0,4 ml • ε = Extinktionskoeffizient dividiert durch 1000 = 10,4
# Bei der oben beschriebenen Bestimmungsmethode misst man somit die Summe der Aktivitäten von Urinkallikrein und Urokinase. Um die genaue Urinkallikreinaktivität zu erhalten, muss man die Urokinaseaktivität abziehen, welche dadurch bestimmt werden kann, dass man in einem Vergleichsversuch durch Zugabe von 0,075 Einheiten Trypsininhibitor (Trypsininhibitor aus Rinderlunge) pro ml Puffer die Urinkallikreinaktivität vollständig hemmt und nur die Urokinaseaktivität misst.
# as §1, §2
# [1] = target: T3, Submandibularis-Kallikrein (Homo sapiens, UniProt P06870); test: Cleavage of chromogenic substrate by submandibular (glandular) kallikrein in human sputum; conditions: 1 ml human sputum, per min; Substratkonzentration 2 x 10^-4 molar
# T3 construct: Man mischt 0,5 ml Sputum mit 2 ml TRIS-Imidazol-Puffer; from tissue; host or cells: human sputum
# T3 sequence (P06870 25-262): as above
# Procedure: 2. Bestimmung des Glandulärkallikreins im Sputum: • Man mischt 0,5 ml Sputum mit 2 ml TRIS-Imidazol-Puffer (Ionenstärke 1,0) und präinkubiert die Mischung 5 Min. bei 37°C. Das Inkubat wird zentrifugiert. In eine Testküvette wird 1,5 ml dest. H2O von 37°C vorgelegt und mit 0,25 ml des Zentrifugats versetzt. Die Komponenten werden gut gemischt. Dann wird 0,2 ml 2 x 10-^3 molare wässrige Substratlösung zugesetzt und gemischt. Dann wird bei 405 nm die Extinktions- änderung kontinuierlich mittels eines Schreibers während 5-10 Min. verfolgt. Aus dem ermittelten Δ OD pro Min. wird mittels der nachstehenden Formel die Kallikreinaktivität pro ml Sputum in mU errechnet: [formula] • F = 5 • V = 1,95 • v = 0,25 • 1 U (Einheit) = Enzymmenge, die während 1 Min. 1 µMol Substrat unter optimalen oder sonst festgelegten Bedingungen in Bezug auf pH, Ionenstärke, Temperatur und Substratkonzentration zu spalten vermag
# as §1, with “gestört. […]” for “gestört.”
# Humanthrombin = target: T4, Humanthrombin (Homo sapiens, UniProt P00734); test: Cleavage of chromogenic substrate by human NIH thrombin; conditions: 1 NIH-Einheit human thrombin, per min; Substratkonzentration 2 x 10^-4 molar
# T4 construct: Humanplasmin und hu-manem NIH-Thrombin
# From the text: as §1, §2
Structure (SMILES),Menge des durch 1 CU-Einheit Humanplasmin pro Min. freigesetzten Spaltproduktes R-NH2 in Nanomol (Humanplasmin) (Humanplasmin) [Nanomol],Menge des durch 1 ml Humanurin pro Min. freigesetzten Spaltproduktes R-NH2 in Nanomol (Urinkallikrein) (Urinkallikrein),Menge des durch 1 ml Humansputum pro Min. freigesetzten Spaltproduktes R-NH2 in Nanomol (Submandibularis-Kallikrein) [1],Menge des durch 1 NIH-Einheit Thrombin pro Min. freigesetzten Spaltproduktes R-NH2 in Nanomol (Humanthrombin) (Humanthrombin)
"CC[C@@H](C)[C@@H](N)C(=O)N[C@@H](CC1CCCCC1)C(=O)N[C@@H](CCCCN)C(=O)Nc1ccc([N+](=O)[O-])cc1 [Beispiel 15, 2HBr.H-D-Ile-CHA-Lys-pNA] (H-[dI]-[Cha]-Lys-pNA)",440,"2,50 Nanomol","23,1 Nanomol","0,39 Nanomol"
"N=C(N)NCCC[C@H](NC(=O)[C@H](Cc1ccccc1)NC(=O)[C@H](N)C1CCCCC1)C(=O)Nc1ccc([N+](=O)[O-])cc1 [Beispiel 16, 2HBr.H-D-CHG-Phe-Arg-pNA] (H-[dChg]-Phe-Arg-pNA)",1200,"3,31 Nanomol","32,2 Nanomol","17,1 Nanomol"
"N=C(N)NCCC[C@H](NC(=O)[C@H](CC1CCCCC1)NC(=O)[C@H](N)c1ccccc1)C(=O)Nc1ccc([N+](=O)[O-])cc1 [Beispiel 18, 2HBr.H-D-Ph'Gly-CHA-Arg-pNA] (H-[dPhg]-[Cha]-Arg-pNA)",1200,"0,67 Nanomol","8,5 Nanomol","4,53 Nanomol"
"N=C(N)NCCC[C@H](NC(=O)[C@@H]1CCCN1C(=O)[C@H](N)CC1CCCCC1)C(=O)Nc1ccc([N+](=O)[O-])cc1 [Beispiel 19, 2HBr.H-D-CHA-Pro-Arg-pNA] (H-[dCha]-Pro-Arg-pNA)",1200,"1,40 Nanomol","8,1 Nanomol","54,4 Nanomol"
"NCCCC[C@H](NC(=O)[C@H](CC1CCCCC1)NC(=O)[C@H](N)C1CCCCC1)C(=O)Nc1ccc([N+](=O)[O-])cc1 [Beispiel 20, 2HBr.H-D-CHG-CHA-Lys-pNA] (H-[dChg]-[Cha]-Lys-pNA)",500,"0,28 Nanomol","4,4 Nanomol","0,99 Nanomol"
"CC(C)C[C@H](NC(=O)[C@H](N)C1CCCCC1)C(=O)N[C@@H](CCCCN)C(=O)Nc1ccc([N+](=O)[O-])cc1 [Beispiel 21, 2HBr.H-D-CHG-Leu-Lys-pNA] (H-[dChg]-Leu-Lys-pNA)",460,"0,40 Nanomol","2,2 Nanomol","1,20 Nanomol"
"N=C(N)NCCC[C@H](NC(=O)[C@H](CC1CCCCC1)NC(=O)[C@H]1CCCN1)C(=O)Nc1ccc([N+](=O)[O-])cc1 [Beispiel 22, 2HBr.H-D-Pro-CHA-Arg-pNA] (H-[dP]-[Cha]-Arg-pNA)",250,"0,63 Nanomol","11,7 Nanomol","0,75 Nanomol"
"N=C(N)NCCC[C@H](NC(=O)[C@@H](NC(=O)[C@H]1CCCN1)C1CCCCC1)C(=O)Nc1ccc([N+](=O)[O-])cc1 [Beispiel 24, 2HBr.H-D-Pro-CHG-Arg-pNA] (H-[dP]-[Chg]-Arg-pNA)",10,"1,87 Nanomol","5,7 Nanomol","0,29 Nanomol"
"N=C(N)NCCC[C@H](NC(=O)[C@H](CC1CCC(O)CC1)NC(=O)[C@H]1CCCN1)C(=O)Nc1ccc([N+](=O)[O-])cc1 (stereo partly drawn) [Beispiel 25, 2HBr.H-D-Pro-CHT-Arg-pNA]",390,"0,52 Nanomol","10,7 Nanomol","1,52 Nanomol"
"CC(C)C[C@H](NC(=O)[C@H](N)c1ccccc1)C(=O)N[C@@H](CCCNC(=N)N)C(=O)Nc1ccc([N+](=O)[O-])cc1 [Beispiel 26, 2HBr.H-D-Ph'Gly-Leu-Arg-pNA] (H-[dPhg]-Leu-Arg-pNA)",194,"0,19 Nanomol","8,3 Nanomol","0,8 Nanomol"
